These results are taken from publication PMC6271101, “Antioxidant, 5-Lipoxygenase Inhibitory and Cytotoxic Activities of Compounds Isolated from the Ferula lutea Flowers” (Molecules, 2014).

Series [1] can be described thus: DPPH free radical scavenging test. As to conditions: mean ± SD of three measurements; read-out: IC50 (µmol/L) DPPH Assay. The method, then: The antioxidant activity of compounds was assessed according to their DPPH scavenging ability as described by Khlifi et al., [33] with some modifications. Reaction mixtures, containing 0.1 mL of the relevant compounds solution in methanol, with concentrations ranging 3 mg/mL and 0.1 mL of a 0.2 mM DPPH methanolic solution, were added to 96-well microtiter plates and incubated at 25 °C for 30 min. Absorbances were measured at 520 nm, the wavelength of maximum absorbance of DPPH, were recorded as A(sample). A blank experiment was also carried out applying the same procedure to a solution without the test material and the absorbance was recorded as A(blank).
Ascorbic acid was used as a standard. All measurements were performed in triplicate.

A short description of series [2]: ABTS radical-scavenging test. The note with it: mean ± SD of three measurements; read-out: IC50 (µmol/L) ABTS+ Assay. The method, then: The radical scavenging capacity of the samples for the ABTS (2,2′-azinobis-3-ethylbenzothiazoline-6-sulphonate) radical cation was determined as described by Khlifi et al., [33] with some modifications. ABTS was generated by mixing a 7 mM of ABTS at pH 7.4 (5 mM NaH2PO4, 5 mM Na2HPO4 and 154 mM NaCl) with 2.5 mM potassium persulfate (final concentration) followed by storage in the dark at room temperature for 16 h before use. The mixture was diluted with ethanol to give an absorbance of 0.70 ± 0.02 units at 734 nm using spectrophotometer. For each sample, diluted solution (20 μL) was allowed to react with fresh ABTS solution (180 μL), and then the absorbance was measured 6 min after initial mixing. […] The capacity of free radical scavenging IC50 was determined using the same previously used equation for the DPPH method. All measurements were performed in triplicate.

Another series deals with T1, 5-lipoxygenase (Glycine max, UniProt P08170).
T1 sequence (P08170 1-839): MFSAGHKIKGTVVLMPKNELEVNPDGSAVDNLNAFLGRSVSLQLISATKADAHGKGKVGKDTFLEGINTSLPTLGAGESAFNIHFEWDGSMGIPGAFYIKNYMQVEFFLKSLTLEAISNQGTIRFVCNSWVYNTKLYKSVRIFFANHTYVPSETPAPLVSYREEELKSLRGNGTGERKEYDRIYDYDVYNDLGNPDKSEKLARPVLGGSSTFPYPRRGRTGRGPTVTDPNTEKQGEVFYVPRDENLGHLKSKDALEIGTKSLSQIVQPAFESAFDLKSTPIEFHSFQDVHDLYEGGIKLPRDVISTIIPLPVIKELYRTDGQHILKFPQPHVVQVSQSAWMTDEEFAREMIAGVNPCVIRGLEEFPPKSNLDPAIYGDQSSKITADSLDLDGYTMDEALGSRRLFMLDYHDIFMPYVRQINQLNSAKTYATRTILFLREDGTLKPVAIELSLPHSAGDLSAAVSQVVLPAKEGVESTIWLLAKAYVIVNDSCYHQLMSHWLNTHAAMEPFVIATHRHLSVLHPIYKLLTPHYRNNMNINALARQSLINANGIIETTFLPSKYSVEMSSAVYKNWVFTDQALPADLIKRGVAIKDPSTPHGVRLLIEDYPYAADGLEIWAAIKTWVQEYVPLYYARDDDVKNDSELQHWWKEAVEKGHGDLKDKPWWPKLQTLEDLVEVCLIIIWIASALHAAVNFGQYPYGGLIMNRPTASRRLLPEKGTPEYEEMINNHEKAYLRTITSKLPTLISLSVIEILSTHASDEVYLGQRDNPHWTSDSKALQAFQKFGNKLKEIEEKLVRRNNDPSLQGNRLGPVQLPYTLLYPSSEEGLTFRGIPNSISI
Nature of the series: 5-Lipoxygenase inhibitory assay (linoleic acid, 234 nm). In kind it is biochemical, Soybean. The method, then: The anti-inflammatory activity activities of the isolates was determined on Soybean lipoxygenase as described by Khlifi et al. with some modifications. 20 µL of each compound was mixed individually with 150 µL sodium phosphate buffer (pH 7.4) containing 20 µL of 5-lipoxygenase and 60 µL of linoleic acid (3.5 mM), yielding a final volume of 250 µL. […] The mixture was incubated at 25 °C for 10 min, and the absorbance was determined at 234 nm. The absorption change with the conversion of linoleic acid to 13-hydroperoxyoctadeca-9,11-dienoate (characterized by the appearance of the conjugated diene at 234 nm) was followed for 10 min at 25 °C. […] All measurements were performed in triplicate.

Series [3] can be described thus: MTT cytotoxicity assay, HCT-116. In kind it is cell-based. As to conditions: human, HCT-116 colon carcinoma cells; HCT-116, MTT; read-out: Cytotoxic Activity (IC50 µmol/L) HCT-116. The method, then:
(§1) The human cancer cell line was used for cytotoxic assay: (HCT-116, IGROV-1 and OVCAR-3). The cells were grown in RPMI-1640 medium supplemented with 10% faetal calf serum (Gibco, Langley, OK, USA), air and 5% CO2. The isolate was added to a medium containing 1 × 10^6 cells/mL, 2 mM L-glutamine and 50 μg/mL gentamycin, and kept at 37 °C in a fully humidified atmosphere. After 18 h of incubation at 37 °C in 5% CO2 incubator, the tubes were centrifuged at 8000 g for 10 min. The supernatant was decanted, and the pellets taken and washed with 20 mM of phosphate buffered saline solution. Each pellet was dissolved in 100 μL (2 mg/mL) MTT solution in a tube, incubated at 22 °C for 4 h and centrifuged at 8000 g for 10 min. All the pellets were dissolved in 500 μL DMSO and read spectrophotometrically at 500 nm. IC50 was calculated by nonlinear regression analysis. Doxorubicin (HCT116) and tamoxifen (IGROV-1 and OVCAR-3) were used as positive control.

A short description of series [4]: MTT cytotoxicity assay, IGROV-1. In kind it is cell-based. As to conditions: human, IGROV-1 ovary cells; IGROV-1, MTT; read-out: Cytotoxic Activity (IC50 µmol/L) IGROV-1. The method, then: as §1
Series [5] is described as follows: MTT cytotoxicity assay, OVCAR-3. In kind it is cell-based. The note with it: human, OVCAR-3 ovary cells; OVCAR-3, MTT; read-out: Cytotoxic Activity (IC50 µmol/L) OVCAR-3. The method, then:
as §1

For series [6] the following is noted: previously tested; cited from earlier work.
Series [7] deals with human chronic myelogenous leukemia cell line K562. Also noted: method as in PMID 22913434. The note with it: read-out: IC50 against K562; cited from earlier work.

Structures are written as SMILES. Bounds are passed on as bounds.

Turning to `COc1cc(-c2oc3cc(O)cc(O)c3c(=O)c2O[C@@H]2O[C@H](CO[C@@H]3O[C@@H](C)[C@H](O)[C@@H](O)[C@H]3O)[C@@H](O)[C@H](O)[C@H]2O)ccc1O` [Compound 8, Isorhamnetin-3-O-α-L-rhamnopyranosyl(1→6)-β-D-glucopyranoside,narcissin], the IC50 is above 300 µmol/L in series [1], above 300 µmol/L in series [2] and 800 µM in series [7]. The “5-Lipoxygenase Inhibitory (% at 80 µmol/L)” value on 5-lipoxygenase (at 80 µmol/L) is “did not exhibit activities”. Besides, on 5-lipoxygenase (read-out: 5-Lipoxygenase Inhibitory (% at 80 µmol/L)), the inhibition at 80 µM came to 0%. Also, the IC50 at 18 h in series [3], in series [4] and in series [5] was above 100 µmol/L each time. For the same molecule, the “DPPH radical scavenging activity” value in series [6] is listed as “no activity”.
